# Test results: PubChem BioAssay (NCI)
#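 Step 1: Grow cells in 96-well plates. Step 2: Expose to compound for 48 hours at 5 concentrations. Step 3: Interpolate endpoints linearly; if unreached, use highest concentration. GI50 = concentration required for 50% inhibition of growth. TGI denotes the concentration required for complete inhibition of growth.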
# Assays:
# Assay in all cases: growth of human tumour cells (NCI), 48 h
# [1] = tested on: DU-145 prostate
# [2] = tested on: K-562 leukemia
# [3] = tested on: OVCAR-3 ovarian
# [4] = tested on: MDA-MB-435
# [5] = tested on: OVCAR-8 ovarian
# [6] = tested on: HL-60(TB) leukemia
# [7] = tested on: 786-0 renal
# [8] = tested on: EKVX NSCLC
# [9] = tested on: RXF 393 renal
# [10] = tested on: NCI-H23 lung
# [11] = tested on: MCF7 breast
# [12] = tested on: HCT-116 colon
# [13] = tested on: MALME-3M melanoma
# [14] = tested on: HCC-2998 colon
# [15] = tested on: HOP-62 NSCLC
# [16] = tested on: MDA-MB-231 breast
# [17] = tested on: SNB-75 CNS
# [18] = tested on: RPMI-8226 leukemia
# [19] = tested on: OVCAR-5 ovarian
# [20] = tested on: CCRF-CEM leukemia
# [21] = tested on: NCI-H460 lung
# [22] = tested on: MOLT-4 leukemia
# [23] = tested on: CAKI-1 renal
# [24] = tested on: UO-31 renal
# [25] = tested on: HCT-15 colon
# [26] = tested on: SK-MEL-2 melanoma
# [27] = tested on: SF-268 CNS
# [28] = tested on: LOX IMVI melanoma
# [29] = tested on: SR leukemia
# [30] = tested on: SNB-19 CNS
# [31] = tested on: COLO 205 colon
# [32] = tested on: HS 578T breast
# [33] = tested on: UACC-257 melanoma
# [34] = tested on: SK-MEL-28 melanoma
# [35] = tested on: SK-OV-3 ovarian
# [36] = tested on: SW-620 colon
# [37] = tested on: SF-295 CNS
# [38] = tested on: U251 CNS
# [39] = tested on: UACC-62 melanoma
# [40] = tested on: KM12 colon
# [41] = tested on: NCI/ADR-RES ovarian
# [42] = tested on: M14 melanoma
# [43] = tested on: HT29 colon
# [44] = tested on: HOP-92 NSCLC
# [45] = tested on: NCI-H522 lung
# [46] = tested on: T-47D breast
# [47] = tested on: TK-10 renal
# [48] = tested on: SF-539 CNS
# [49] = tested on: OVCAR-4 ovarian
# [50] = tested on: IGROV1 ovarian
# [51] = tested on: A498 renal
# [52] = tested on: ACHN renal
# [53] = tested on: BT-549 breast
# [54] = tested on: SN12C renal
# [55] = tested on: A549 NSCLC
# [56] = tested on: NCI-H226 lung
# [57] = tested on: PC-3 prostate
smiles,measurement,setting,value
CC(=O)O[C@@H]1C(=O)N(c2cnccn2)[C@H]1c1ccccc1[N+](=O)[O-],GI50,[1],512 nM
same,TGI,[1],> 100000 nM
same,GI50,[2],341 nM
same,TGI,[2],> 100000 nM
same,GI50,[3],288 nM
same,TGI,[3],3300 nM
same,GI50,[4],205 nM
same,TGI,[4],456 nM
same,GI50,[5],299 nM
same,TGI,[5],946 nM
same,GI50,[6],288 nM
same,GI50,[7],551 nM
same,TGI,[7],13400 nM
same,GI50,[8],518 nM
same,TGI,[8],> 100000 nM
same,GI50,[9],520 nM
same,TGI,[9],3560 nM
same,GI50,[10],369 nM
same,TGI,[10],13000 nM
same,GI50,[11],352 nM
same,TGI,[11],> 64200 nM
same,GI50,[12],330 nM
same,TGI,[12],6770 nM
same,GI50,[13],526 nM
same,TGI,[13],40900 nM
same,GI50,[14],2100 nM
same,TGI,[14],10500 nM
same,GI50,[15],1140 nM
same,TGI,[15],18300 nM
same,GI50,[16],351 nM
same,TGI,[16],4850 nM
same,GI50,[17],357 nM
same,TGI,[17],3100 nM
same,GI50,[18],384 nM
same,TGI,[18],22800 nM
same,GI50,[19],550 nM
same,TGI,[19],16600 nM
same,GI50,[20],435 nM
same,TGI,[20],> 100000 nM
same,GI50,[21],346 nM
same,TGI,[21],10800 nM
same,GI50,[22],452 nM
same,TGI,[22],> 100000 nM
same,GI50,[23],487 nM
same,TGI,[23],13300 nM
same,GI50,[24],616 nM
same,TGI,[24],16300 nM
same,GI50,[25],421 nM
same,TGI,[25],14500 nM
same,GI50,[26],1960 nM
same,TGI,[26],> 100000 nM
same,GI50,[27],566 nM
same,TGI,[27],> 69500 nM
same,GI50,[28],283 nM
same,TGI,[28],1690 nM
same,GI50,[29],350 nM
same,TGI,[29],> 100000 nM
same,GI50,[30],1860 nM
same,TGI,[30],> 100000 nM
same,GI50,[31],3020 nM
same,TGI,[31],11800 nM
same,GI50,[32],920 nM
same,TGI,[32],> 100000 nM
same,GI50,[33],992 nM
same,TGI,[33],63000 nM
same,GI50,[34],926 nM
same,TGI,[34],27400 nM
same,GI50,[35],781 nM
same,TGI,[35],> 100000 nM
same,GI50,[36],396 nM
same,TGI,[36],19300 nM
same,GI50,[37],865 nM
same,TGI,[37],12400 nM
same,GI50,[38],366 nM
same,TGI,[38],10600 nM
same,GI50,[39],327 nM
same,TGI,[39],18800 nM
same,GI50,[40],362 nM
same,TGI,[40],19400 nM
same,GI50,[41],311 nM
same,TGI,[41],7510 nM
same,GI50,[42],323 nM
same,TGI,[42],5980 nM
same,GI50,[43],2540 nM
same,TGI,[43],6610 nM
same,GI50,[44],356 nM
same,TGI,[44],10900 nM
same,GI50,[45],184 nM
same,TGI,[45],436 nM
same,GI50,[46],18500 nM
same,TGI,[46],> 100000 nM
same,GI50,[47],14000 nM
same,TGI,[47],49900 nM
same,GI50,[48],234 nM
same,TGI,[48],575 nM
same,GI50,[49],720 nM
same,TGI,[49],> 100000 nM
same,GI50,[50],529 nM
same,TGI,[50],19000 nM
same,GI50,[51],> 100000 nM
same,TGI,[51],> 100000 nM
same,GI50,[52],596 nM
same,TGI,[52],17400 nM
same,GI50,[53],295 nM
same,TGI,[53],1240 nM
same,GI50,[54],432 nM
same,TGI,[54],13800 nM
same,GI50,[55],410 nM
same,TGI,[55],> 100000 nM
same,GI50,[56],527 nM
same,TGI,[56],9400 nM
same,GI50,[57],582 nM
same,TGI,[57],25700 nM
